This note sets out measurements from ChEMBL document CHEMBL3714713, “4-phenyl-pyrimido [4,5-b] indole derivatives” (2004).

The subject of assay [1] is Mus musculus. The experiment in a line: Inhibition of anti-CD3 antibody-induced IL2 production in Balb/c mouse dosed intravenously 5 mins before anti-CD3 antibody injection and measured 2 hrs post-challenge by ELISA. Type of assay: functional, organism-based. For orientation: ELISA stands for enzyme-linked immunosorbent assay.
Assay [2] deals with Mus musculus. The assay can be described thus: Inhibition of anti-CD3 antibody-induced IL4 production in Balb/c mouse dosed intravenously 5 mins before anti-CD3 antibody injection and measured 2 hrs post-challenge by ELISA. Type of assay: functional, organism-based.
Assay [3] has as its system Mus musculus. The experiment in a line: Inhibition of anti-CD3 antibody-induced IFNgamma production in Balb/c mouse dosed intravenously 5 mins before anti-CD3 antibody injection and measured 2 hrs post-challenge by ELISA. Type of assay: functional, organism-based.
For assay [4], the target named is T1, Dual specificity mitogen-activated protein kinase kinase 7 (Homo sapiens, UniProt O14733).
T1 sequence (O14733 whole entry): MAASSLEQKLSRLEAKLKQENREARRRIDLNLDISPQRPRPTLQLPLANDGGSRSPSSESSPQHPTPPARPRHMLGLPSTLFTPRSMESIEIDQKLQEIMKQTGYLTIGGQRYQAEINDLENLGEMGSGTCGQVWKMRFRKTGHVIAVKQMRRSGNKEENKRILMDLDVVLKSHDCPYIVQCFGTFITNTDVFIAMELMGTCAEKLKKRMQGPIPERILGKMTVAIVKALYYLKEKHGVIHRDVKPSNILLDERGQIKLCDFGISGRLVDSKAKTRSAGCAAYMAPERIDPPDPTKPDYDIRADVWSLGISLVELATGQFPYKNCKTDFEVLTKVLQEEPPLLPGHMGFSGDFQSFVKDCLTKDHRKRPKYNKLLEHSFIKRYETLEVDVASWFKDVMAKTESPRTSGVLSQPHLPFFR
The experiment in a line: Inhibition of GST-tagged human MKK7 expressed in Escherichia coli (BL21(DE3) pLysS) co-expressing human MEKK catalytic domain using biotinylated and GST-tagged rat GST-KN-SAPKalpha substrate incubated for 1 hr by time-resolved fluorescence based assay.

Activity calls are given as the source filed them. The calls are words filed in the database; no cut-off is given here. Some results are limits rather than exact numbers.

The term IC50 denotes the midpoint of a concentration-inhibition curve. Low values mean greater potency in that assay, high ones weaker potency in that assay.

For `N#Cc1ccc2[nH]c3ncnc(-c4ccccc4)c3c2c1`, the outcome in assay [1], in assay [2] and in assay [3] was Active.

For the molecule `N#Cc1ccc2[nH]c3ncnc(-c4cccc(N)c4)c3c2c1`, the outcome in assay [1], in assay [2] and in assay [3] was Active.

`COc1ccc(-c2ncnc3[nH]c4ccc(C(N)=O)cc4c23)cc1`: the outcome in assay [1], in assay [2] and in assay [3] was Active.

As to `CN(C)c1ccc(-c2ncnc3[nH]c4ccc(C(N)=O)cc4c23)cc1`, half-maximal inhibition in assay [4] (IC50) required 1000 nM. For the same molecule, the result in assay [1], in assay [2] and in assay [3] was Active.

On to `N#Cc1ccc2[nH]c3nc(N)nc(-c4ccccc4)c3c2c1`, for which the outcome in assay [1], in assay [2] and in assay [3] was Active.

With `NC(=O)c1ccc2[nH]c3ncnc(-c4ccc(F)cc4)c3c2c1`, the concentration for half-maximal inhibition (IC50) in assay [4] is not above 1000 nM. Further, the outcome in assay [1], in assay [2] and in assay [3] was Active.

`NC(=O)c1ccc2[nH]c3ncnc(-c4ccccc4)c3c2c1` showed an IC50 in assay [4] not above 1000 nM. For the same molecule, the result in assay [1], in assay [2] and in assay [3] was Active.

For the molecule `Oc1ccc2[nH]c3ncnc(-c4ccccc4)c3c2c1`, in assay [4], the IC50 was not above 1000 nM. The outcome in assay [1], in assay [2] and in assay [3] was Active.

Consider `N#Cc1ccc2[nH]c3ncnc(-c4ccc(F)cc4)c3c2c1`, for which the result in assay [1], in assay [2] and in assay [3] was Active.

Regarding `NC(=O)c1ccc2[nH]c3nc(N)nc(-c4ccccc4)c3c2c1`, the IC50 in assay [4] is not above 1000 nM. In addition, the outcome in assay [1], in assay [2] and in assay [3] was Active.

Turning to `COc1ccc(-c2ncnc3[nH]c4ccc(C#N)cc4c23)cc1`, the result in assay [1], in assay [2] and in assay [3] was Active.

Consider `Oc1ccc2[nH]c3ncnc(-c4ccc(F)cc4)c3c2c1`, for which the IC50 in assay [4] was not above 1000 nM. Also, the result in assay [1], in assay [2] and in assay [3] was Active.

For `CN(C)c1ccc(-c2ncnc3[nH]c4ccc(C#N)cc4c23)cc1`, the result in assay [1], in assay [2] and in assay [3] was Active.

In assay [4], `COc1ccc(-c2ncnc3[nH]c4ccc(O)cc4c23)cc1` came in with an IC50 not above 1000 nM. Further, the result in assay [1], in assay [2] and in assay [3] was Active.

As for `COc1ccc(-c2ncnc3[nH]c4ccc(OC)cc4c23)cc1`, the outcome in assay [1], in assay [2] and in assay [3] was Active.

With `NC(=O)c1ccc2[nH]c3ncnc(-c4cccc(N)c4)c3c2c1`, the outcome in assay [1], in assay [2] and in assay [3] was Active.

Take `COc1ccc2[nH]c3ncnc(-c4ccccc4)c3c2c1`: the result in assay [1], in assay [2] and in assay [3] was Active.
